Results reported in US7772233B2, “Arylamino N-heteroaryl compounds as MEK inhibitors” (Merck Serono, S.A., priority 2006, dated 2010).

Key:
[1] = biological target: Human Mek1 Kinase (Homo sapiens, UniProt Q02750, S218E/S222E); experiment: MEK-1 Enzyme Assay (LANCE-HTRF); type: biochemical; conditions: constitutively active MEK-1EE, ERK-2K52A substrate, 9 μM ATP, 1.5 hrs room temperature
Method: Assay 1: MEK-1 Enzyme Assay (LANCE-HTRF)
Inhibition of Human Mek1 Kinase Activity was Monitored with a Homogenous, fluorescence-based assay. The assay uses time resolved fluorescence resonance energy transfer to probe for phosphorylation of ERK1 by MEK1. The detailed procedure is described in the following:
Constititutively active MEK-1EE (150 ng/well) and ERK-2K52A (110 ng/well) were incubated in black, 384 well Optiplates (Perkin Elmer) for 1.5 hrs at room temperature, in the presence of increasing concentrations of inhibitors. The total reaction volume was 50 μl. The inhibitors were serial diluted in kinase buffer (9 μM ATP, 50 mM Tris-HCl pH 8.0, 10 mM MgCl2, 1 mM DTT and 100 μM Na3VO4), to a final concentration of 1% DMSO. At the end of the incubation, the enzyme reaction was quenched by adding 50 μl of assay buffer containing 50 mM Tris-HCl, 50 mM EDTA, 0.1% BSA and a mixture of 1.25 ug/ml europium labeled anti-phosphotyrosine mAb (Perkin Elmer) and 5 μg/ml of allophycocyanin labeled anti-GST antibody (CIS-US). Plates were agitated on a plate shaker for 30 minutes and the phosphorylation of the ERK-2K52A substrate was measured by homogeneous time resolved fluorescence (HTRF) at 340 nm excitation and 665 nm (Europium)/615 nm (APC) emission filters on the VICTOR V fluorescence plate reader. Phosphorylation is expressed as a ratio of 665 nM signal×10,000/615 nM signal. To assess the inhibitory potential of the compounds, IC50-values were determined. Results are shown in Table 1, column 2, where “+++” indicates IC50 values below 1 μM, “++” indicates IC50 values below 10 μM and above 1 μM, and “+” indicates IC50 values above 10 μM.

[2] = test system: Murine colon C26 cells; experiment: Tumor Cell Proliferation Assay (ATP Lite), C26; type: cell-based; conditions: Mus musculus, 96 h, 4 days incubation, ATPlite
Method: (§1) Assay 2: Tumor Cell Proliferation Assays (ATP Lite)
(§2) Murine colon C26 (1500 cells/well), human melanoma A375 (2000 cells/well), or human pancreatic MiaPaCa-2 cells (2000 cells/well) were plated in white, 96 well plates (Corning) in growth media (DMEM with 10% fetal bovine serum, 2 mM glutamine for C26 and MiaPaCa-2, and RPMI with 10% fetal bovine serum, 2 mM glutamine for A375) and cultured overnight at 37° C. in a humidified, 5% CO2 incubator. Inhibitors were serially diluted in 100% DMSO and subsequently added to the cells, in growth media, to reach a final concentration of 0.25% DMSO. The cells were incubated for 4 days in the presence of the test compounds and the proliferation was quantitated using the ATPlite cell proliferation kit (Packard). Results of cell proliferation assay are shown in Table 1. columns 3-5, where “+++” indicates IC50 values below 1 μM, “++” indicates IC50 values below 10 μM and above 1 μM, and “+” indicates IC50 values above 10 μM.

[3] = test system: human pancreatic MiaPaCa-2 cells; experiment: Tumor Cell Proliferation Assay (ATP Lite), MiaPaCa-2; type: cell-based; conditions: MIA PaCa-2, 96 h, 4 days incubation, ATPlite, read-out: MiaPaCa2
Method: as §1, §2

[4] = test system: human melanoma A375 cells; experiment: Tumor Cell Proliferation Assay (ATP Lite), A375; type: cell-based; conditions: A-375, 96 h, 4 days incubation, ATPlite
Method: as §1, §2

Sequence of Human Mek1 Kinase (Q02750 whole entry S218E/S222E): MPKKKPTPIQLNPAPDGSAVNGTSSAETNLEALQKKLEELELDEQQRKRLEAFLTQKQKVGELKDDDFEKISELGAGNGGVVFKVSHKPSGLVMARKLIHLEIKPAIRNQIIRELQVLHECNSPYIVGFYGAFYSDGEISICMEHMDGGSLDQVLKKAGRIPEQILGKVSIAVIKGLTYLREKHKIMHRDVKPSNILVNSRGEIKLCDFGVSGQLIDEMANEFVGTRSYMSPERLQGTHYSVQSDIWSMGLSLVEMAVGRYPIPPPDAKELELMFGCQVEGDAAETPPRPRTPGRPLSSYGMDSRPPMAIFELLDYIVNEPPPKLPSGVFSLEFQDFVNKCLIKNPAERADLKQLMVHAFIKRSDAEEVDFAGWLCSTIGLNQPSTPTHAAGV

Compound	IC50 [1] [µM]	IC50 [2] [µM]	IC50 [3] [µM]	IC50 [4] [µM]
CC1(C)OC[C@H](CONC(=O)c2ccc(F)nc2Nc2ccc(I)cc2F)O1 [Example 12, N-{[(4R)-2,2-dimethyl-1,3-dioxolan-4-yl]methoxy}-6-fluoro-2-[(2-fluoro-4-iodophenyl)amino]nicotinamide]	1 to 10			
O=C(O)c1cc(N2CCOCC2)nnc1Nc1ccc(I)cc1F [Example 5, 3-(2-Fluoro-4-iodo-phenylamino)-6-morpholin-4-yl-pyridazine-4-carboxylic acid]	1 to 10	> 10	> 10	> 10
O=C(NOC[C@H](O)CO)c1cc(Cl)nnc1Nc1ccc(I)cc1F [Example 8, 6-Chloro-3-(2-fluoro-4-iodo-phenylamino)-pyridazine-4-carboxylic acid (2,3-dihydroxy-propoxy)-amide]	> 10			
O=C(O)c1cc(Cl)nnc1Nc1ccc(I)cc1F [Example 4, 6-Chloro-3-(2-fluoro-4-iodo-phenylamino)-pyridazine-4-carboxylic acid]	< 1	> 10	> 10	> 10
NC(=O)c1ncc(F)cc1Nc1ccc(I)cc1F [Example 3, 5-Fluoro-3-(2-fluoro-4-iodo-phenylamino)-pyridine-2-carboxylic acid amide]	< 1	> 10	> 10	1 to 10
CC1(C)OC[C@H](CONC(=O)c2cc(Cl)nnc2Nc2ccc(I)cc2F)O1 [Example 7, 6-Chloro-3-(2-fluoro-4-iodo-phenylamino)-pyridazine-4-carboxylic acid (2,2-dimethyl-[1,3]dioxolan-4-ylmethoxy)-amide]	> 10	> 10	> 10	> 10
O=C(O)c1ccc(F)nc1Nc1ccc(I)cc1F [Example 11, 6-fluoro-2-[(2-fluoro-4-iodophenyl)amino]nicotinic acid]	< 1	> 10	> 10	> 10
O=C(O)c1ncc(F)cc1Nc1ccc(I)cc1F [Example 2, 5-Fluoro-3-(2-fluoro-4-iodo-phenylamino)-pyridine-2-carboxylic acid]	1 to 10			
NC(=O)c1cc(Cl)nnc1Nc1ccc(I)cc1F [Example 9, 6-Chloro-3-(2-fluoro-4-iodo-phenylamino)-pyridazine-4-carboxylic acid amide]	< 1	> 10	1 to 10	1 to 10
O=C(NOC[C@H](O)CO)c1ccc(F)nc1Nc1ccc(I)cc1F [Example 13, N—[(R)-2,3-Dihydroxy-propoxy]-6-fluoro-2-[(2-fluoro-4-iodo-phenylamino)]-nicotinamide]	1 to 10	> 10	> 10	1 to 10
O=C(NCCN1CCOCC1)c1cc(Cl)nnc1Nc1ccc(I)cc1F [Example 10, 6-Chloro-3-(2-fluoro-4-iodo-phenylamino)-pyridazine-4-carboxylic acid (2-morpholin-4-yl-ethyl)-amide]	1 to 10			
COc1cc(C(=O)O)c(Nc2ccc(I)cc2F)nn1 [Example 6, 3-(2-Fluoro-4-iodo-phenylamino)-6-methoxy-pyridazine-4-carboxylic acid]	> 10	> 10	> 10	> 10
N#Cc1ncc(F)cc1Nc1ccc(I)cc1F [Example 1, 5-Fluoro-3-(2-fluoro-4-iodo-phenylamino)-pyridine-2-carbonitrile]	> 10			
